Like-named read-outs stand apart in the source and are kept apart here.
Legend:
hNav1.2 [1] = molecular target: T1, hNav1.2 (Homo sapiens, UniProt Q99250); test: cell-based; details: QPatch; read-out: Fitted Emax hNav1.2
hNav1.2 [2] = molecular target: T1, hNav1.2; test: cell-based; details: manual patch clamp; read-out: Fitted Emax hNav1.2
hNav1.6 [3] = molecular target: T2, hNav1.6 (Homo sapiens, UniProt Q9UQD0); test: cell-based; details: manual patch clamp
hNav1.4 [4] = molecular target: T3, hNav1.4 (Homo sapiens, UniProt P35499); test: cell-based; details: manual patch clamp; read-out: Fitted Emax hNav1.4
T3 sequence (P35499 whole entry): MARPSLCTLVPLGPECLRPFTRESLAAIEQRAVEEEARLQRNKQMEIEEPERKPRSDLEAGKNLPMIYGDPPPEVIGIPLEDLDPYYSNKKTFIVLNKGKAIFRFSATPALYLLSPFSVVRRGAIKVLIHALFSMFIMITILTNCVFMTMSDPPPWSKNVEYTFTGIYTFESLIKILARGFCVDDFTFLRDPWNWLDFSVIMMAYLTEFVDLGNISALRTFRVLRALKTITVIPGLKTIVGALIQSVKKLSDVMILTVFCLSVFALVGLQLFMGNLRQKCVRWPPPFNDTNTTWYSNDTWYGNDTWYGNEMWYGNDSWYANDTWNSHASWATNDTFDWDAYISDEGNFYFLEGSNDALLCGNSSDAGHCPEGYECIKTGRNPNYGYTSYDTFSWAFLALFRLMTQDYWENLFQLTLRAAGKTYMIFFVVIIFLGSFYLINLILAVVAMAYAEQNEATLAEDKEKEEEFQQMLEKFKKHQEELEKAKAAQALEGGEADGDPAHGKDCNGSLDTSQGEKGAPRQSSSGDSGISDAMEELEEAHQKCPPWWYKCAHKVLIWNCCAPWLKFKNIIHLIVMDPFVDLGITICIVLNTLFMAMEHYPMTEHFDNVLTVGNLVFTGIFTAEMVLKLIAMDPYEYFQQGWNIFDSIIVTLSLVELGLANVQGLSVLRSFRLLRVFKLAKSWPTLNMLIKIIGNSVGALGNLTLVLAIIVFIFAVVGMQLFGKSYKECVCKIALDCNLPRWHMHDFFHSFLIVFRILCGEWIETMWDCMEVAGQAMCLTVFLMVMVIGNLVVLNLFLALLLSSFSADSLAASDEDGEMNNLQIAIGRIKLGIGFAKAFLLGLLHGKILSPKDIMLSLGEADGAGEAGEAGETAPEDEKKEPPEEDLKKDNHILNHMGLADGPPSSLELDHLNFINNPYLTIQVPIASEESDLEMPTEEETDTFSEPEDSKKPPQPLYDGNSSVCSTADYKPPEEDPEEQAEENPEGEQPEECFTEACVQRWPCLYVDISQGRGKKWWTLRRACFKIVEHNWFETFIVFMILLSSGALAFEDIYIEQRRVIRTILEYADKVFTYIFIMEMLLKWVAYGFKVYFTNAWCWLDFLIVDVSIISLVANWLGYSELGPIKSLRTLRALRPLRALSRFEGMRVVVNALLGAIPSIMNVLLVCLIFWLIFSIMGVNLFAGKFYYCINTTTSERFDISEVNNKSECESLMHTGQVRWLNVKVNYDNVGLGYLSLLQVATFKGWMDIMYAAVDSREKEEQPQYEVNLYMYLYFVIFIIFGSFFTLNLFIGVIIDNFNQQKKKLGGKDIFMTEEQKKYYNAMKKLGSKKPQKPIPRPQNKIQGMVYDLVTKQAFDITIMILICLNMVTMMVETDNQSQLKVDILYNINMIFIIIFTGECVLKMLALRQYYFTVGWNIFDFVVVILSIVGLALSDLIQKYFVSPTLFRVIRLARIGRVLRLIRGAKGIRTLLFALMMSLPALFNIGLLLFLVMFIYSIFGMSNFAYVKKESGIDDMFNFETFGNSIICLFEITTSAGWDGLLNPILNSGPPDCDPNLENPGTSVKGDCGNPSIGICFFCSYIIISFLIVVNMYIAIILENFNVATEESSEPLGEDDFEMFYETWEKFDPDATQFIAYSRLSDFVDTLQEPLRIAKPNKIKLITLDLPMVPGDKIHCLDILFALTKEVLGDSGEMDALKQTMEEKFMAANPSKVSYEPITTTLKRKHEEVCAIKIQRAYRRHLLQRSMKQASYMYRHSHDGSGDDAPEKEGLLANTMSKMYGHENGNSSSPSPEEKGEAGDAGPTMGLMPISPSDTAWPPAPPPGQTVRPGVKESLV

hNav1.1 [5] = molecular target: T4, hNav1.1 (Homo sapiens, UniProt P35498); test: cell-based; details: QPatch; read-out: Fitted Emax hNav1.1
hNav1.7 [6] = molecular target: T5, hNav1.7 (Homo sapiens, UniProt Q15858); test: cell-based; details: QPatch; read-out: Fitted Emax hNav1.7
T5 construct: host or cells: HEK293

hNav1.6 [7] = molecular target: T2, hNav1.6; test: cell-based; details: QPatch; read-out: Fitted Emax hNav1.6
[8] = for mentation BAR (bright, alert and responsive) / normal corneal reflex / normal pinna reflex / normal placing stepping / scratching: 1.4 mg/100 μl perineural
Source text: Rats ~250–300 g were placed under Isoflurane anesthesia (4% for induction, 2% for maintenance). A single hip and proximal hind-leg area were shaved and the injection area prepped with alternating applications of chlorhexidine 2% soln. and isopropyl alcohol 70%. A pelvic notch just distal to the greater trochanter was located with palpation and a starter hole was made through the dermis using a 20G hypodermic needle. A 22G nerve stimulating injection needle (ProBloc II, cat#HN3S-40, Halyard Health) connected to a peripheral nerve stimulation device (EZstim II model ES400, Life-Tech, Inc.) was placed into the starter hole. The nerve stimulator was set to 0.7 mA and the injection needle was gently advanced in a line parallel to the femur until localized dorsal or plantar flexion of the foot was observed. Generalized muscle twitching involving primary twitching on the quadriceps muscle was considered a negative response and the needle was carefully re-positioned until the appropriate localized foot flicking was observed. […] The device was increased back to 0.2 mA and if twitching was still observed, the 100 μL injection was given.

hNav1.7 [9] = molecular target: T5, hNav1.7; test: cell-based; details: manual patch clamp; read-out: Fitted Emax hNav1.7
hNav1.1 [10] = molecular target: T4, hNav1.1; test: cell-based; details: manual patch clamp
hNav1.4 [11] = molecular target: T3, hNav1.4; test: cell-based; details: QPatch; read-out: Fitted Emax hNav1.4
[12] = 0.5 μg/h IT infusion; in words
Experimental: Efficacy was assessed in the hotplate and tail flick tests at various time points before pump implantation, during infusion and after discharge of the pumps.
All peptides were formulated in DPBS (no Ca^2+ and Mg^2+) and stored at 4 °C until use. For bolus administration, 10 μl of compound solution or vehicle were injected via the IT catheter followed by 10 μl saline flush. […] The osmotic pump was implanted subcutaneously above the scapula. Animals were excluded from behavioral studies if any motor dysfunction was noted following IT injection, if baseline thresholds were >90% or <10% of the cut-off value in the tail flick, hotplate and Hargreaves test, if there was significant leak (>20 μl) while injecting formalin into the paw or any malfunction of the metal bands or formalin apparatus. Intrathecal compound was administered 15 min–1 h before commencing behavioral testing. Intrathecal-cannulated rats were trained on the behavioral apparatus for at least two days before baseline withdrawal latencies were taken. All behavioral tests were conducted by an investigator blinded to group and treatment.

[13] = 0.5 μg/10 μl IT, 2 h post dose (1 h post formalin)
[14] = 2.5 μg/10 μl IT, 2 h post dose (1 h post formalin)
[15] = 2.5 μg/10 μl IT, first 2 animals not assessed

T2 sequence (Q9UQD0 whole entry): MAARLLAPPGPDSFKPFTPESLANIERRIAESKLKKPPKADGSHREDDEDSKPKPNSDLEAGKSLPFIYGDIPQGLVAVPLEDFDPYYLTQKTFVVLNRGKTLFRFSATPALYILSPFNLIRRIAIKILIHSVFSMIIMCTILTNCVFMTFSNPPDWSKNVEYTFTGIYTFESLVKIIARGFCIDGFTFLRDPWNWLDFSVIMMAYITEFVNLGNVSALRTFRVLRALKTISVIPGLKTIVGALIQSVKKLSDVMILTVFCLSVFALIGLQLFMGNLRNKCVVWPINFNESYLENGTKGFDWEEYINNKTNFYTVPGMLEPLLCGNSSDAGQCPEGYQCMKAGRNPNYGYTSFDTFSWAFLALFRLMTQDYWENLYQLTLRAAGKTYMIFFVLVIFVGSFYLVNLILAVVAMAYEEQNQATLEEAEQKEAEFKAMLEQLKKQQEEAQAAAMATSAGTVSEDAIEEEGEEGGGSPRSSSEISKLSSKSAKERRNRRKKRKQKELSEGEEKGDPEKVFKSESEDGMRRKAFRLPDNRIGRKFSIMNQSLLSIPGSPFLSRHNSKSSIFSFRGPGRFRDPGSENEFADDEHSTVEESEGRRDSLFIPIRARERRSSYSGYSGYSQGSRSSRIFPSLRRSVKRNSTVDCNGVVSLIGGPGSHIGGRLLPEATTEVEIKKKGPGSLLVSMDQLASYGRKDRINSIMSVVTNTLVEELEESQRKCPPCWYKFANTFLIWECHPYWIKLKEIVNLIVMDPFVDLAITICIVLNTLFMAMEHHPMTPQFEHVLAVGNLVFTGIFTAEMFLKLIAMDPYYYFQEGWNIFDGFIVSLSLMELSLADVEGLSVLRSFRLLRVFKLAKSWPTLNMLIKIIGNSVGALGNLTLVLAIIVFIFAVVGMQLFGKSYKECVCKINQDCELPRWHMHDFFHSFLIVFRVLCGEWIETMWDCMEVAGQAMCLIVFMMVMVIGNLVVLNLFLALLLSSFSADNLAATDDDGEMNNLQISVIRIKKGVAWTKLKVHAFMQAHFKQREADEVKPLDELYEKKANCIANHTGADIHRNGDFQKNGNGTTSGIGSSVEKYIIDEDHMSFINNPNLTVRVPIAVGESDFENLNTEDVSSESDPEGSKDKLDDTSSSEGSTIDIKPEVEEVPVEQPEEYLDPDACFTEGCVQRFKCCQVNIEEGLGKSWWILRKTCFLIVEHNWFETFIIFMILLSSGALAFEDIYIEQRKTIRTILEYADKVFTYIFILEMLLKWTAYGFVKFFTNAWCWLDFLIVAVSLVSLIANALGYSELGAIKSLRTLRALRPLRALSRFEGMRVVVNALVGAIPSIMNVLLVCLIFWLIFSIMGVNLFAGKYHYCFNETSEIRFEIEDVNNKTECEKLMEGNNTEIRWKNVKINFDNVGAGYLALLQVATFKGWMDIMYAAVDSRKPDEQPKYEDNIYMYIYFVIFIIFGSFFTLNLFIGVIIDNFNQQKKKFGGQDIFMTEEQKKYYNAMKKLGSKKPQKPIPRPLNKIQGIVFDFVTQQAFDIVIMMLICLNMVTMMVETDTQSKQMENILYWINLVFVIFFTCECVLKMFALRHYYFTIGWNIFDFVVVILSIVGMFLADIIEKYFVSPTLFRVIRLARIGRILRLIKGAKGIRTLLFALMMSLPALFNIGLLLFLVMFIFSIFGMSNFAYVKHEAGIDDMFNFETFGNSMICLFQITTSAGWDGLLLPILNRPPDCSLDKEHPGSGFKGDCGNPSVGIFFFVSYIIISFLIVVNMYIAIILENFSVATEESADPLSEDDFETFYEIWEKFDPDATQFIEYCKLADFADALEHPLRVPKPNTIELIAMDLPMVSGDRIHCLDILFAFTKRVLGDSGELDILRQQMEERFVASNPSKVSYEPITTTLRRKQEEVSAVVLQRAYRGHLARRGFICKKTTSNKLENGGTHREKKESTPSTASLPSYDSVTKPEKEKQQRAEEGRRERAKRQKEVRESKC

In the case of `CSCC[C@@H]1NC(=O)CNC(=O)[C@H](CCC(=O)O)NC(=O)[C@@H]2CSSC[C@H](NC(=O)[C@H](Cc3ccc(O)cc3)NC(=O)[C@@H]3CCCN3C(=O)CN)C(=O)N[C@@H](CCC(N)=O)C(=O)N[C@@H](CCCCN)C(=O)N[C@@H](Cc3c[nH]c4ccccc34)C(=O)N[C@@H](CCSC)C(=O)N[C@@H](CCC(N)=O)C(=O)N[C@@H]([C@@H](C)O)C(=O)N[C@H]3CSSC[C@H](NC(=O)[C@H](C(C)C)NC1=O)C(=O)N[C@@H](CCCNC(=N)N)C(=O)N[C@@H](CC(C)C)C(=O)N[C@@H](Cc1c[nH]c4ccccc14)C(=O)N[C@H](C(=O)N[C@@H](CCCCN)C(=O)N[C@@H](CCCCN)C(=O)N[C@@H](CCCCN)C(=O)N[C@@H](CC(C)C)C(=O)N[C@@H](CC(C)C)C(=O)O)CSSC[C@H](NC(=O)[C@H](CCCCN)NC(=O)[C@H](CCCNC(=N)N)NC(=O)[C@H](CCC(=O)O)NC(=O)[C@H](CO)NC(=O)[C@H](CC(=O)O)NC3=O)C(=O)N2` [JNJ63955918], the gross motor normal (0.5 μg/10 μl IT, 1 h post dose) is reported as 6/6, the normal proprioception (0.5 μg/10 μl IT, 1 h post dose) is reported as 6/6 and the gross motor normal [13] is reported as 6/6. For the same molecule, the normal proprioception [13] was 6/6, the abrasions at euthanasia (0.5 μg/10 μl IT, first 2 animals not assessed) was 0/4 and the gross motor normal (2.5 μg/10 μl IT, 1 h post dose) was 6/6. The normal proprioception (2.5 μg/10 μl IT, 1 h post dose) was 6/6, the gross motor normal [14] was 6/6 and the normal proprioception [14] was 6/6. For the same molecule, the “excessive scratching leading to upper body skin abrasion (animals affected)” value (2.5 μg/10 μl IT, blinded repeat study) was 2 of 4, the abrasions at euthanasia [15] was 2/4 and the scratching [15] was 2/4. The “duration of muscle weakness” value (7.5 μg/10 μl IT) was less than 1 h, the “incidence of mild reversible muscle weakness” value (7.5 μg/10 μl IT) was “approximately 50%” and the scabbing (IT dose range finding, in words) was “Scabbing on face/neck/shoulders was observed in some rats”. The motor impairment (IT doses above 7.5 μg/10 μl, in words) was “Dose related motor impairment became more obvious and the duration of the effects was longer”, the tolerability (IT doses up to 5 μg/10 μl, in words) was “well tolerated with no detectable abnormal behaviors” and the in-vivo safety window (rat, in vivo) was 7–16 fold. For the same molecule, the “therapeutic margin vs ziconotide” value (rat, in vivo) was “greater than that of ziconotide”, the “maximum tolerated dose (MTD), IT” value (rat, intrathecal) was 5 μg/10 μl and the “lesions to the face and shoulders” value (rats, in words) was “often noticed”. The Emax (hNav1.2 [1]) was 27.6 ± 7.3%, the Emax (hNav1.2 [2]) was 50 ± 18.5% and the IC50 (hNav1.6 [3]; holding −120 mV, test −10 mV, 0.1% BSA, 22–24 °C, read-out: pIC50 hNav1.6 (converted)) was 1 µM. It also gave an Emax (hNav1.6 [3]; read-out: Fitted Emax hNav1.6) of 100%, an Emax (hNav1.4 [4]) of 100% and an Emax (hNav1.1 [5]) of 100%. The Emax (hNav1.7 [6]) was 79.1 ± 3.4%, the Emax (hNav1.6 [7]) was 100% and the “scratching / behavioral abnormalities” value ([8]; 1.4 mg/100 μl peri-sciatic, in words) was “Scratching was observed in some animals but no other behavioral abnormalities were noted”. The “mentation BAR (bright, alert and responsive)” value (shortened to “mentation BAR”) ([8]; 15 min post dose) was 7/9, the normal corneal reflex ([8]; 15 min post dose) was 9/9 and the normal pinna reflex ([8]; 15 min post dose) was 9/9. The normal placing stepping ([8]; 15 min post dose) was 9/9, the scratching ([8]; 15 min post dose) was 0/9 and the “mentation BAR” value ([8]; 30 min post dose) was 4/9. The normal corneal reflex ([8]; 30 min post dose) was 9/9, the normal pinna reflex ([8]; 30 min post dose) was 9/9 and the normal placing stepping ([8]; 30 min post dose) was 9/9. For the same molecule, the scratching ([8]; 30 min post dose) was 1/9, the “mentation BAR” value ([8]; 60 min post dose) was 5/9 and the normal corneal reflex ([8]; 60 min post dose) was 9/9. For the same molecule, the normal pinna reflex ([8]; 60 min post dose) was 9/9, the normal placing stepping ([8]; 60 min post dose) was 9/9 and the scratching ([8]; 60 min post dose) was 2/9. The “mentation BAR” value ([8]; 120 min post dose) was 6/9, the normal corneal reflex ([8]; 120 min post dose) was 9/9 and the normal pinna reflex ([8]; 120 min post dose) was 9/9. The normal placing stepping ([8]; 120 min post dose) was 9/9, the scratching ([8]; 120 min post dose) was 2/9 and the “mentation BAR” value ([8]; 240 min post dose) was 8/9. For the same molecule, the normal corneal reflex ([8]; 240 min post dose) was 9/9, the normal pinna reflex ([8]; 240 min post dose) was 9/9 and the normal placing stepping ([8]; 240 min post dose) was 9/9. For the same molecule, the scratching ([8]; 240 min post dose) was 1/9, the “mentation BAR” value ([8]; 24 h post dose) was 9/9 and the normal corneal reflex ([8]; 24 h post dose) was 9/9. The normal pinna reflex ([8]; 24 h post dose) was 9/9, the normal placing stepping ([8]; 24 h post dose) was 9/9 and the gross motor deficits ([8]; 2.5 mg/100 μl peri-sciatic, in words) was “absence of any gross motor deficits”. The “tolerability, peri-sciatic” value ([8]; up to 2.5 mg/100 μl, in words) was “well tolerated”, the Emax (hNav1.7 [9]) was 94.8 ± 3.3% and the IC50 (hNav1.1 [10]; holding −120 mV, test −10 mV, 0.1% BSA, 22–24 °C, read-out: pIC50 hNav1.1 (converted)) was 10 µM. The Emax (hNav1.1 [10]; read-out: Fitted Emax hNav1.1) was 100%, the Emax (hNav1.4 [11]) was 100% and the “body weight gain vs vehicle” value [12] was “gained weight at the same rate”. For the same molecule, the “motor or other behavioral abnormalities” value [12] was “No motor or other behavioral abnormalities were observed” and the scabbing [12] was “Some scabbing on the face, shoulders, hind limbs and tail”.
